According to ChEMBL document CHEMBL1157646, “Melanogenesis inhibitors from the desert plant Anastatica hierochuntica in B16 melanoma cells” (Bioorg Med Chem, 2010):
Active and inactive are the calls of the source. The calls are words filed in the database; no cut-off is given here.

Assays:
[1] = cells; details: Mus musculus, B16-4A5, 72 h, read-out: INH
Description: Inhibition of theophylline-stimulated melanogenesis in mouse B16-4A5 cells at 1 uM after 72 hrs

[2] = Toxicity in mouse B16-4A5 cells assessed as inhibition of cell proliferation at 1 uM in presence of 1 mM theophylline after 72 hrs by WST8 dye reduction assay; type: cell-based
[3] = molecular target: T1, Tyrosinase (Agaricus bisporus) (UniProt O42713); assay: Inhibition of mushroom tyrosinase assessed as inhibition of melanin production from dopachrome by autoxidation at 100 uM
T1 sequence (whole entry): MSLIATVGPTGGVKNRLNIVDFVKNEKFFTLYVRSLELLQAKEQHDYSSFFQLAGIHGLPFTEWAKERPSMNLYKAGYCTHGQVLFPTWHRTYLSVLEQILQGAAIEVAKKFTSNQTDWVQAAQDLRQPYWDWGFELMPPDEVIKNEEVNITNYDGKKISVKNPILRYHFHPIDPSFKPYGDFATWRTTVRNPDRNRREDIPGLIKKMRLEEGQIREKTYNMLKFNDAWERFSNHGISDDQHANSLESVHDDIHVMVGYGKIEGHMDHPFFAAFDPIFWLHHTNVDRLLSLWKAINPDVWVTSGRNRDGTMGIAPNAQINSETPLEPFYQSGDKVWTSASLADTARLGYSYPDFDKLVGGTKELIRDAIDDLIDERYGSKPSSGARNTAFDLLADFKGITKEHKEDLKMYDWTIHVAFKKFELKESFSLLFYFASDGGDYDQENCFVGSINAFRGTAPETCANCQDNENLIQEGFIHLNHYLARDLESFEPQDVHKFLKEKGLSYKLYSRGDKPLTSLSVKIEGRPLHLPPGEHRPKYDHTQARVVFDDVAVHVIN

[4] = Toxicity in mouse B16-4A5 cells assessed as inhibition of cell proliferation at 30 uM in presence of 1 mM theophylline after 72 hrs by WST8 dye reduction assay; type: cell-based
[5] = cells; details: Mus musculus, B16-4A5, 72 h, read-out: INH; remark: listed apart in the source
Description: Inhibition of theophylline-stimulated melanogenesis in mouse B16-4A5 cells at 3 uM after 72 hrs

[6] = Toxicity in mouse B16-4A5 cells assessed as inhibition of cell proliferation at 3 uM in presence of 1 mM theophylline after 72 hrs by WST8 dye reduction assay; type: cell-based
[7] = cells; details: Mus musculus, B16-4A5, 72 h, read-out: INH; remark: listed apart in the source
Description: Inhibition of theophylline-stimulated melanogenesis in mouse B16-4A5 cells at 10 uM after 72 hrs

[8] = cells; details: Mus musculus, B16-4A5, 72 h, read-out: INH; remark: listed apart in the source
Description: Inhibition of theophylline-stimulated melanogenesis in mouse B16-4A5 cells at 30 uM after 72 hrs

[9] = Toxicity in mouse B16-4A5 cells assessed as inhibition of cell proliferation at 10 uM in presence of 1 mM theophylline after 72 hrs by WST8 dye reduction assay; type: cell-based
[10] = Toxicity in mouse B16-4A5 cells assessed as inhibition of cell proliferation in presence of 1 mM theophylline after 72 hrs by WST8 dye reduction assay; type: cell-based
[11] = molecular target: T1, Tyrosinase (Agaricus bisporus); assay: Inhibition of mushroom tyrosinase at 1 uM
[12] = molecular target: T1, Tyrosinase (Agaricus bisporus); assay: Inhibition of mushroom tyrosinase at 3 uM

Row | inhibition [11] | inhibition [12] | Structure (SMILES) | inhibition at 1 µM [1] | inhibition at 72 h, 1 µM [2] | inhibition [3] | inhibition at 72 h, 30 µM [4] | inhibition at 3 µM [5] | inhibition at 72 h, 3 µM [6] | inhibition at 10 µM [7] | inhibition at 30 µM [8] | inhibition at 72 h, 10 µM [9] | IC50 at 72 h [10]
1 | – | – | COc1cc([C@H]2Oc3c(OC)cc(/C=C/C=O)cc3[C@@H]2CO)ccc1O | -2.8% | 3.8% | inactive | 40.3% | 2.1% | 5.5% | 28.4% | 79.1% | 13.6% | > 100 µM
2 | – | – | COc1cc([C@H]2Oc3c(OC)cc(/C=C/CO)cc3[C@@H]2CO)ccc1O | -1.6% | -2.7% | inactive | 23.3% | -5.4% | 0.3% | 18.6% | 72.7% | -1.6% | > 100 µM
3 | – | – | COc1cc(C(=O)CCO)ccc1O | – | – | – | < 8.8% | – | – | – | < 15.4% | – | –
4 | – | – | COc1cc(C(O)C(CO)Oc2ccc(/C=C/C=O)cc2OC)ccc1O (centres undefined) | – | 2.2% | – | 91.5% | – | 13.6% | < 15.4% | – | 68.6% | 6.9 µM
5 | – | – | COc1cc(C(O)C(CO)Oc2ccc(/C=C/CO)cc2OC)ccc1O (centres undefined) | 8.8% | – | inactive | < 8.8% | 11.7% | – | 24.5% | 52.9% | – | –
6 | – | – | COc1ccc([C@@H]2Oc3c(O)cc(/C=C/C=O)cc3[C@H]2CO)cc1OC | 10.7% | – | inactive | < 8.8% | 8.4% | – | 33.6% | 76.8% | – | –
7 | – | – | COc1cc(C(=O)CO)ccc1O | – | – | – | < 8.8% | – | – | – | < 15.4% | – | –
8 | – | – | COc1cc([C@H]2Oc3cc(O)cc(O)c3C(=O)[C@@H]2O)ccc1O | 9.8% | – | – | < 8.8% | 8% | – | 10.6% | 16.2% | – | –
9 | – | – | COc1cc([C@@H](O)[C@@H](CO)c2ccc(O)c(OC)c2)ccc1O (relative stereo) | 14.9% | – | – | < 8.8% | 20.8% | – | 21.3% | 27.3% | – | –
10 | – | – | COc1cc([C@H](O)[C@@H](CO)c2ccc(O)c(OC)c2)ccc1O (relative stereo) | – | – | – | < 8.8% | – | – | – | < 15.4% | – | –
11 | – | – | COc1cc(C(=O)C(O)CO)ccc1O (single isomer, unassigned; (+)) | 16.5% | – | – | < 8.8% | 18.1% | – | 24% | 25.8% | – | –
12 | – | – | O=Cc1ccc(O)cc1 [4-HYDROXYBENZALDEHYDE] | – | -8.4% | – | 17.6% | – | -13.6% | – | < 15.4% | -21% | –
13 | – | – | O=C1c2c(O)cc(O)cc2O[C@@H](c2ccc(O)c(O)c2)[C@H]1O [(+)-EPITAXIFOLIN] | 3.5% | – | – | < 8.8% | 6.8% | – | 6.9% | 13.7% | – | –
14 | – | – | O=C1c2c(O)cc(O)cc2O[C@H](c2ccc(O)c(O)c2)[C@H]1O [(+)-TAXIFOLIN] | 3.5% | – | – | < 8.8% | 3.1% | – | 6.7% | 21.7% | – | –
15 | – | – | COc1cc(C(=O)[C@H](CO)c2ccc(O)c(OC)c2)ccc1O [(-)-EVOFOLIN B] | 18.2% | – | – | < 8.8% | 15% | – | 16.4% | 23.5% | – | –
16 | 6.4% | 6.7% | O=C1C[C@@H](c2ccc(O)cc2)Oc2cc3oc4cc(O)c(O)cc4c3c(O)c21 [ANASTATIN A] | 7.1% | – | inactive | < 8.8% | 14.9% | – | 35.9% | 65.1% | – | –
17 | – | – | O=C1C[C@@H](c2ccc(O)cc2)Oc2c1c(O)cc1oc3cc(O)c(O)cc3c21 [ANASTATIN B] | -1.1% | – | – | < 8.8% | 10.1% | – | 19.5% | 40.3% | – | –

Row | inhibition [11] | inhibition [12] | Structure (SMILES) | inhibition at 1 µM [1] | inhibition at 72 h, 1 µM [2] | inhibition [3] | inhibition at 72 h, 30 µM [4] | inhibition at 3 µM [5] | inhibition at 72 h, 3 µM [6] | inhibition at 10 µM [7] | inhibition at 30 µM [8] | inhibition at 72 h, 10 µM [9] | IC50 at 72 h [10]
18 | – | – | COc1cc(C(C)=O)ccc1O [APOCYNIN] | 16.8% | – | – | < 8.8% | 17.5% | – | 18.9% | 20.2% | – | –
19 | 1.6% | 4.2% | COc1cc(/C=C/C=O)ccc1O [CONIFERYL ALDEHYDE] | 10.3% | -4.2% | – | 11.5% | 11.6% | -3.2% | 14% | 39.1% | -0.5% | –
20 | – | – | O=C1c2c(O)cc(O)cc2O[C@H](c2ccc(O)cc2)[C@H]1O [DIHYDROKAEMPFEROL] | 6% | – | – | < 8.8% | 14.4% | – | -5.2% | 7% | – | –
21 | – | – | COc1cc(/C=C/C(=O)O)ccc1O [FERULATE] | – | – | – | < 8.8% | – | – | – | < 15.4% | – | –
22 | – | – | COC/C=C/c1cc(O)c2c(c1)[C@@H](CO)[C@H](c1ccc(O)c(OC)c1)O2 [HIEROCHIN A] | 1.9% | – | inactive | < 8.8% | 8% | – | 32.5% | 51.8% | – | –
23 | – | – | COc1cc([C@@H]2Oc3c(O)cc(C=O)cc3[C@H]2CO)ccc1O [HIEROCHIN C] | -1% | – | – | < 8.8% | 6.6% | – | 27.6% | 44.6% | – | –
24 | – | – | COc1ccc([C@H]2Oc3c(OC)cc(/C=C/CO)cc3[C@@H]2CO)cc1OC [Hierochin B] | -1.6% | 0.3% | – | 23.8% | 2.2% | 1.3% | 7.6% | 50.6% | 10.9% | > 100 µM
25 | – | – | O=c1c(O)c(-c2ccc(O)cc2)oc2cc(O)cc(O)c12 [KAEMPFEROL] | -0.6% | 3% | inactive | 16.3% | 7.9% | 10.2% | 18.6% | 58.1% | 13% | –
26 | – | – | COc1cc(C[C@H]2CO[C@H](c3ccc(O)c(OC)c3)[C@H]2CO)ccc1O [LARICIRESINOL] | – | – | – | < 8.8% | – | – | – | < 15.4% | – | –
27 | – | – | O=C1C[C@@H](c2ccc(O)cc2)Oc2cc(O)cc(O)c21 [NARINGENIN] | 14.4% | – | – | < 8.8% | 13.9% | – | 22.5% | 16.9% | – | –
28 | – | – | O=C(O)c1ccc(O)cc1 [PARABEN] | – | – | – | < 8.8% | – | – | – | < 15.4% | – | –
29 | – | – | O=C(O)c1ccc(O)c(O)c1 [PROTOCATECHUIC ACID] | – | – | – | < 8.8% | – | – | – | < 15.4% | – | –
30 | – | – | C[C@@H]1O[C@@H](OC[C@H]2O[C@@H](Oc3c(-c4ccc(O)c(O)c4)oc4cc(O)cc(O)c4c3=O)[C@H](O)[C@@H](O)[C@@H]2O)[C@H](O)[C@H](O)[C@H]1O [RUTIN] | 4.5% | – | – | < 8.8% | 3.1% | – | 4.3% | 5.2% | – | –
31 | – | – | COc1cc([C@@H]2Oc3c(O)cc([C@H]4Oc5cc(O)cc(O)c5C(=O)[C@@H]4O)cc3[C@H]2CO)ccc1O [SILICRISTIN A] | 4.1% | – | – | < 8.8% | 1.3% | – | 3.8% | 17.4% | – | –
32 | – | – | COc1cc([C@H]2Oc3c(O)cc([C@H]4Oc5cc(O)cc(O)c5C(=O)[C@@H]4O)cc3[C@@H]2CO)ccc1O [SILICRISTIN B] | 4.2% | – | – | < 8.8% | -1.3% | – | 1.6% | 1.2% | – | –
33 | – | – | COc1cc(C=O)ccc1O [VANILLIN] | – | – | – | < 8.8% | – | – | – | < 15.4% | – | –
34 | – | – | COc1ccc(C(=O)O)cc1 [p-ANISIC ACID] | – | – | – | < 8.8% | – | – | – | < 15.4% | – | –

Row | Structure (SMILES) | inhibition [11] | inhibition [12] | inhibition at 1 µM [1] | inhibition at 72 h, 1 µM [2] | inhibition [3] | inhibition at 72 h, 30 µM [4] | inhibition at 3 µM [5] | inhibition at 72 h, 3 µM [6] | inhibition at 10 µM [7] | inhibition at 30 µM [8] | inhibition at 72 h, 10 µM [9] | IC50 at 72 h [10]
35 | O=Cc1ccc(O)c(O)c1 [PROTOCATECHUALDEHYDE] | 3.1% | 2.3% | 8.5% | -4.7% | inactive | 11.4% | 13.8% | -4.7% | 40.4% | 57.9% | -3.7% | –
